Active and inactive are the calls of the source. No rule for the calls is given here.
Tested on: CCRIS mutagenicity, Ames/micronucleus/aberration tests
Assay: CCRIS mutagenicity studies
[1] = Test System: AMES SALMONELLA TYPHIMURIUM, Strain/Indicator: TA98, Metabolic Activation: NONE, Method: STANDARD PLATE
[2] = Test System: AMES SALMONELLA TYPHIMURIUM, Strain/Indicator: TA100, Metabolic Activation: NONE, Method: STANDARD PLATE
[3] = Test System: AMES SALMONELLA TYPHIMURIUM, Strain/Indicator: TA1535, Metabolic Activation: NONE, Method: STANDARD PLATE
[4] = Test System: AMES SALMONELLA TYPHIMURIUM, Strain/Indicator: TA1537, Metabolic Activation: NONE, Method: STANDARD PLATE

Cc1ccc(N)cc1O
mutagenic call (Test System: AMES SALMONELLA TYPHIMURIUM, Strain/Indicator: TA97, Metabolic Activation: HAMSTER, LIVER, S-9, AROCLOR 1254 (10%), Method: PREINCUBATION): active; positive
mutagenic call (Test System: AMES SALMONELLA TYPHIMURIUM, Strain/Indicator: TA97, Metabolic Activation: NONE, Method: PREINCUBATION): inactive; negative
mutagenic call (Test System: AMES SALMONELLA TYPHIMURIUM, Strain/Indicator: TA97, Metabolic Activation: RAT, LIVER, S-9, AROCLOR 1254 (10%), Method: PREINCUBATION): active; positive
mutagenic call (Test System: AMES SALMONELLA TYPHIMURIUM, Strain/Indicator: TA98, Metabolic Activation: HAMSTER LIVER S-9, AROCLOR 1254, Method: STANDARD PLATE): inactive; negative
mutagenic call (Test System: AMES SALMONELLA TYPHIMURIUM, Strain/Indicator: TA98, Metabolic Activation: HAMSTER, LIVER, S-9, AROCLOR 1254 (10%), Method: PREINCUBATION): active; positive
mutagenic call (Test System: AMES SALMONELLA TYPHIMURIUM, Strain/Indicator: TA98, Metabolic Activation: NONE, Method: PREINCUBATION): inactive; negative
mutagenic call [1]: inactive; negative
mutagenic call (Test System: AMES SALMONELLA TYPHIMURIUM, Strain/Indicator: TA98, Metabolic Activation: RAT LIVER S-9, AROCLOR 1254, Method: STANDARD PLATE): inactive; negative
mutagenic call (Test System: AMES SALMONELLA TYPHIMURIUM, Strain/Indicator: TA98, Metabolic Activation: RAT, LIVER, S-9, AROCLOR 1254 (10%), Method: PREINCUBATION): active; positive
mutagenic call (Test System: AMES SALMONELLA TYPHIMURIUM, Strain/Indicator: TA100, Metabolic Activation: HAMSTER LIVER S-9, AROCLOR 1254, Method: STANDARD PLATE): inactive; negative
mutagenic call (Test System: AMES SALMONELLA TYPHIMURIUM, Strain/Indicator: TA100, Metabolic Activation: HAMSTER, LIVER, S-9, AROCLOR 1254 (10%), Method: PREINCUBATION): active; positive
mutagenic call (Test System: AMES SALMONELLA TYPHIMURIUM, Strain/Indicator: TA100, Metabolic Activation: NONE, Method: PREINCUBATION): inactive; negative
mutagenic call [2]: inactive; negative
mutagenic call (Test System: AMES SALMONELLA TYPHIMURIUM, Strain/Indicator: TA100, Metabolic Activation: RAT LIVER S-9, AROCLOR 1254, Method: STANDARD PLATE): inactive; negative
mutagenic call (Test System: AMES SALMONELLA TYPHIMURIUM, Strain/Indicator: TA100, Metabolic Activation: RAT, LIVER, S-9, AROCLOR 1254 (10%), Method: PREINCUBATION): active; positive
mutagenic call (Test System: AMES SALMONELLA TYPHIMURIUM, Strain/Indicator: TA102, Metabolic Activation: HAMSTER LIVER S-9, AROCLOR 1254, Method: STANDARD PLATE): inactive; negative
mutagenic call (Test System: AMES SALMONELLA TYPHIMURIUM, Strain/Indicator: TA102, Metabolic Activation: NONE, Method: STANDARD PLATE): inactive; negative
mutagenic call (Test System: AMES SALMONELLA TYPHIMURIUM, Strain/Indicator: TA102, Metabolic Activation: RAT LIVER S-9, AROCLOR 1254, Method: STANDARD PLATE): inactive; negative
mutagenic call (Test System: AMES SALMONELLA TYPHIMURIUM, Strain/Indicator: TA1535, Metabolic Activation: HAMSTER LIVER S-9, AROCLOR 1254, Method: STANDARD PLATE): inactive; negative
mutagenic call (Test System: AMES SALMONELLA TYPHIMURIUM, Strain/Indicator: TA1535, Metabolic Activation: HAMSTER, LIVER, S-9, AROCLOR 1254 (10%), Method: PREINCUBATION): inactive; negative
mutagenic call (Test System: AMES SALMONELLA TYPHIMURIUM, Strain/Indicator: TA1535, Metabolic Activation: NONE, Method: PREINCUBATION): inactive; negative
mutagenic call [3]: inactive; negative
mutagenic call (Test System: AMES SALMONELLA TYPHIMURIUM, Strain/Indicator: TA1535, Metabolic Activation: RAT LIVER S-9, AROCLOR 1254, Method: STANDARD PLATE): inactive; negative
mutagenic call (Test System: AMES SALMONELLA TYPHIMURIUM, Strain/Indicator: TA1535, Metabolic Activation: RAT, LIVER, S-9, AROCLOR 1254 (10%), Method: PREINCUBATION): inactive; negative
mutagenic call (Test System: AMES SALMONELLA TYPHIMURIUM, Strain/Indicator: TA1537, Metabolic Activation: HAMSTER LIVER S-9, AROCLOR 1254, Method: STANDARD PLATE): inactive; negative
mutagenic call [4]: inactive; negative
mutagenic call (Test System: AMES SALMONELLA TYPHIMURIUM, Strain/Indicator: TA1537, Metabolic Activation: RAT LIVER S-9, AROCLOR 1254, Method: STANDARD PLATE): inactive; negative
mutagenic call (Test System: Mouse lymphoma, Strain/Indicator: L5178Y (tk+/tk-), Metabolic Activation: None, Method: Suspension/plate): active; positive
mutagenic call (Test System: Mouse lymphoma, Strain/Indicator: L5178Y (tk+/tk-), Metabolic Activation: Rat, Liver, S-9, Aroclor 1254, Method: Suspension/plate): inactive; negative

CN(C)N=Nc1ccc(Cl)cc1
mutagenic call (Test System: AMES SALMONELLA TYPHIMURIUM, Strain/Indicator: G46, Metabolic Activation: RAT, LIVER, S-9, PHENOBARBITAL, Method: STANDARD PLATE): active; positive
mutagenic call (Test System: AMES SALMONELLA TYPHIMURIUM, Strain/Indicator: TA92, Metabolic Activation: MOUSE, LIVER, S-9, POLYCHLORINATED BIPHENYLS, Method: PREINCUBATION): inactive; negative
mutagenic call (Test System: AMES SALMONELLA TYPHIMURIUM, Strain/Indicator: TA92, Metabolic Activation: MOUSE, LIVER, S-9, POLYCHLORINATED BIPHENYLS, Method: STANDARD PLATE): inactive; negative
mutagenic call (Test System: AMES SALMONELLA TYPHIMURIUM, Strain/Indicator: TA92, Metabolic Activation: NONE, Method: STANDARD PLATE): inactive; negative
mutagenic call (Test System: AMES SALMONELLA TYPHIMURIUM, Strain/Indicator: TA97, Metabolic Activation: MOUSE, LIVER, S-9, POLYCHLORINATED BIPHENYLS, Method: PREINCUBATION): active; positive
mutagenic call (Test System: AMES SALMONELLA TYPHIMURIUM, Strain/Indicator: TA97, Metabolic Activation: MOUSE, LIVER, S-9, POLYCHLORINATED BIPHENYLS, Method: STANDARD PLATE): active; positive
mutagenic call (Test System: AMES SALMONELLA TYPHIMURIUM, Strain/Indicator: TA97, Metabolic Activation: NONE, Method: STANDARD PLATE): inactive; negative
mutagenic call (Test System: AMES SALMONELLA TYPHIMURIUM, Strain/Indicator: TA98, Metabolic Activation: MOUSE, LIVER, S-9, POLYCHLORINATED BIPHENYLS, Method: PREINCUBATION): active; positive
mutagenic call (Test System: AMES SALMONELLA TYPHIMURIUM, Strain/Indicator: TA98, Metabolic Activation: MOUSE, LIVER, S-9, POLYCHLORINATED BIPHENYLS, Method: STANDARD PLATE): active; positive
mutagenic call [1]: active; positive
mutagenic call (Test System: AMES SALMONELLA TYPHIMURIUM, Strain/Indicator: TA100, Metabolic Activation: MOUSE, LIVER, S-9, POLYCHLORINATED BIPHENYLS, Method: PREINCUBATION): active; positive
mutagenic call (Test System: AMES SALMONELLA TYPHIMURIUM, Strain/Indicator: TA100, Metabolic Activation: MOUSE, LIVER, S-9, POLYCHLORINATED BIPHENYLS, Method: STANDARD PLATE): inactive; negative
mutagenic call [2]: inactive; negative
mutagenic call (Test System: AMES SALMONELLA TYPHIMURIUM, Strain/Indicator: TA1535, Metabolic Activation: MOUSE, LIVER, S-9, POLYCHLORINATED BIPHENYLS, Method: PREINCUBATION): active; positive
mutagenic call (Test System: AMES SALMONELLA TYPHIMURIUM, Strain/Indicator: TA1535, Metabolic Activation: MOUSE, LIVER, S-9, POLYCHLORINATED BIPHENYLS, Method: STANDARD PLATE): inactive; negative
mutagenic call [3]: inactive; negative
mutagenic call (Test System: AMES SALMONELLA TYPHIMURIUM, Strain/Indicator: TA1537, Metabolic Activation: MOUSE, LIVER, S-9, POLYCHLORINATED BIPHENYLS, Method: PREINCUBATION): active; positive
mutagenic call (Test System: AMES SALMONELLA TYPHIMURIUM, Strain/Indicator: TA1537, Metabolic Activation: MOUSE, LIVER, S-9, POLYCHLORINATED BIPHENYLS, Method: STANDARD PLATE): active; positive
mutagenic call [4]: active; positive
mutagenic call (Test System: AMES SALMONELLA TYPHIMURIUM, Strain/Indicator: TA1538, Metabolic Activation: MOUSE, LIVER, S-9, POLYCHLORINATED BIPHENYLS, Method: PREINCUBATION): active; positive
mutagenic call (Test System: AMES SALMONELLA TYPHIMURIUM, Strain/Indicator: TA1538, Metabolic Activation: MOUSE, LIVER, S-9, POLYCHLORINATED BIPHENYLS, Method: STANDARD PLATE): active; positive
mutagenic call (Test System: AMES SALMONELLA TYPHIMURIUM, Strain/Indicator: TA1538, Metabolic Activation: NONE, Method: STANDARD PLATE): inactive; negative

From PubChem BioAssay AID1259407 (Chemical Carcinogenesis Research Information System (CCRIS), 2018)
